The target in this assay is USP30 (Homo sapiens (Human), UniProt Q70CQ3). The assay can be described thus: USP30 biochemical IC50 assay (fluorescence polarisation). The note with it: enzyme and compound incubated 30 min at room temp; TAMRA labelled peptide-ubiquitin substrate 50 nM; read after 2 hr incubation; read-out: IC50 range. Here is the method:
USP30 Biochemical IC50 Assay
Dilution plates were prepared at 21 times the final concentration ([…] for a final concentration of 100 μM) in 50% DMSO in a 96-well polypropylene V-bottom plate (Greiner #651201). A typical 8-point dilution series to be 100, 30, 10, 3, 1, 0.3, 0.1, […].
Reactions were performed in duplicate in black 384 well plates (small volume, Greiner 784076) in a final reaction volume of 21 μl. Either 1 μl of 50% DMSO or diluted compound was added to the plate. USP30 was diluted in reaction buffer (40 mM Tris, pH 7.5, 0.005% Tween 20, 0.5 mg/ml BSA, 5 mM beta-mercaptoethanol) to the equivalent of 0.05 µl/well and 10 μl of diluted USP30 was added to the compound. Enzyme and compound were incubated for 30 min at room temp. Reactions were initiated by the addition of 50 nM of TAMRA labelled peptide linked to ubiquitin via an iso-peptide bond as fluorescence polarisation substrate. Reactions were read immediately after addition of substrate and following a 2 hr incubation at room temperature. Readings were performed on a Pherastar Plus (BMG Labtech). λ Excitation 540 nm; λ Emission 590 nm.
Background: Fluorescence polarisation rises when a labelled molecule tumbles more slowly, as on binding a larger partner.

Chain of USP30 (Q70CQ3 57-517): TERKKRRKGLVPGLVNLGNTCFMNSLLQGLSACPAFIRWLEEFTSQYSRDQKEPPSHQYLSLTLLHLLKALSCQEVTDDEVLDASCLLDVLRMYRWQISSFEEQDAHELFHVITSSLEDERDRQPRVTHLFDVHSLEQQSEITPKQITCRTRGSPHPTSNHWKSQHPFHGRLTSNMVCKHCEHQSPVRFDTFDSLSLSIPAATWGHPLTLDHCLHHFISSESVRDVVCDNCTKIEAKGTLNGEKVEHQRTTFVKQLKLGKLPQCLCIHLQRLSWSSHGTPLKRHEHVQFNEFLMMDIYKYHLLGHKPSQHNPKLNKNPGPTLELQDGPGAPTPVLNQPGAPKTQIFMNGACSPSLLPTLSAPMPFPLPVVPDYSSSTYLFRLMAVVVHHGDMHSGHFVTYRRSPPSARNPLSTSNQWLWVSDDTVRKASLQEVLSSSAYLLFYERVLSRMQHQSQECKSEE

One may read the IC50 as the midpoint of a concentration-inhibition curve. Take `C[C@H]1CN(C#N)C[C@@H]1C(=O)N1CCc2cc(-c3ccccc3)cnc21` (racemic) [Example 52, Trans-3-methyl-4-(5-phenyl-2,3-dihydro-1H-pyrrolo[2,3-b]pyridine-1-carbonyl)-pyrrolidine-1-carbonitrile]: the 50% inhibitory concentration (IC50) lay within 100 to 1000 nM.

Regarding `N#CN1CCC(F)(C(=O)N2CCc3cc(-c4cccnc4)ccc32)C1` (racemic) [Example 57, 3-Fluoro-3-(5-(pyridin-3-yl)indoline-1-carbonyl)pyrrolidine-1-carbonitrile], the half-inhibitory concentration (IC50) lay within 100 to 1000 nM.

As for `C[C@@H]1CN(C#N)C[C@H]1C(=O)N1CCc2cc(-c3ccccc3Cl)ccc21` (relative stereo) [Example 13, (trans)-3-(5-(2-Chlorophenyl)indoline-1-carbonyl)-4-methylpyrrolidine-1-carbonitrile], the IC50 was 100 to 1000 nM.

For `CN(C(=O)[C@H]1CN(C#N)C[C@@H]1CO)c1ncc(-c2ccccc2)s1` (relative stereo) [Example 34, (trans)-1-Cyano-4-(hydroxymethyl)-N-methyl-N-(5-phenylthiazol-2-yl)pyrrolidine-3-carboxamide], the IC50 lay within 100 to 1000 nM.

On to `N#CN1C[C@H]2CN(c3ncc(-c4ccccc4)s3)C(=O)[C@H]2C1` (relative stereo) [Example 48, (cis)-4-Oxo-5-(5-phenylthiazol-2-yl)hexahydropyrrolo[3,4-c]pyrrole-2(1H)-carbonitrile], for which the IC50 fell in the range of 1000 to 10000 nM.

Take `CN(C(=O)C1CCN(C#N)C1)c1ccc(-c2ccccc2)cn1` (stereo in doubt) [Example 31, (S)-1-Cyano-N-methyl-N-(5-phenylpyridin-2-yl)pyrrolidine-3-carboxamide]: the IC50 lay in the range of 1000 to 10000 nM.

As for `CCN(C(=O)C1CCN(C#N)C1)c1nc(-c2ccccc2)cs1` (stereo not shown) [Example 1, 1-Cyano-N-ethyl-N-(4-phenylthiazol-2-yl)pyrrolidine-3-carboxamide], the concentration for half-maximal inhibition (IC50) was in the range of 1000 to 10000 nM.

Regarding `CCN(C(=O)C1CCN(C#N)C1)c1ncc(-c2ccccc2)s1` (stereo not shown) [Example 2, 1-cyano-N-ethyl-N-(5-phenylthiazol-2-yl)pyrrolidine-3-carboxamide], the IC50 was 1000 to 10000 nM.

For the molecule `CN(C(=O)[C@H]1CCN(C#N)C1)c1ncc(-c2ccccc2)s1` [Example 3, (S)-1-Cyano-N-methyl-N-(5-phenylthiazol-2-yl)pyrrolidine-3-carboxamide], the half-maximal inhibitory concentration (IC50) lay within 100 to 1000 nM.

`CN(C(=O)[C@H]1CCN(C#N)C1)c1cc(-c2ccccc2)ccn1` [Example 4, (S)-1-Cyano-N-methyl-N-(4-phenylpyridin-2-yl)pyrrolidine-3-carboxamide]: the IC50 was in the range of 1000 to 10000 nM.

Regarding `CN(C(=O)[C@H]1CCN(C#N)C1)c1cccc(-c2ccccc2)n1` [Example 5, (S)-1-Cyano-N-methyl-N-(6-phenylpyridin-2-yl)pyrrolidine-3-carboxamide], the IC50 lay in the range of 1000 to 10000 nM.

Take `CC(C)N(C(=O)C1CCN(C#N)C1)c1nc(-c2ccccc2)cs1` (stereo not shown) [Example 7, 1-Cyano-N-isopropyl-N-(4-phenylthiazol-2-yl)pyrrolidine-3-carboxamide]: the concentration for half-maximal inhibition (IC50) was in the range of 1000 to 10000 nM.

As to `CN(C(=O)C1(F)CCN(C#N)C1)c1ncc(-c2ccccc2)s1` (stereo not shown) [Example 8, 1-Cyano-3-fluoro-N-methyl-N-(5-phenylthiazol-2-yl)pyrrolidine-3-carboxamide], the IC50 was 100 to 1000 nM.

Regarding `CN(C(=O)C1(F)CCN(C#N)C1)c1nc2ccccc2s1` (stereo not shown) [Example 9, N-(Benzo[d]thiazol-2-yl)-1-cyano-3-fluoro-N-methylpyrrolidine-3-carboxamide], the IC50 is 100 to 1000 nM.

On to `N#CN1CC[C@H](C(=O)N2CCc3c(-c4ccccc4)cccc32)C1` [Example 10, (S)-3-(4-Phenylindoline-1-carbonyl)pyrrolidine-1-carbonitrile], for which the half-inhibitory concentration (IC50) is 100 to 1000 nM.

As to `N#CN1CC[C@@H](C(=O)N2CCc3ccc(-c4ccccc4)cc32)C1` [Example 11, (R)-3-(6-Phenylindoline-1-carbonyl)pyrrolidine-1-carbonitrile], the IC50 was 1000 to 10000 nM.

Consider `N#CN1CC[C@H](C(=O)N2CCc3cc(-c4cccc(Cl)c4)ccc32)C1` [Example 12, (S)-3-(5-(3-Chlorophenyl)indoline-1-carbonyl)pyrrolidine-1-carbonitrile], for which the half-inhibitory concentration (IC50) lay within 100 to 1000 nM.

Turning to `N#CN1CCC(F)(C(=O)N2CCc3cc(-c4ccccc4)ccc32)C1` (stereo not shown) [Example 14, 3-Fluoro-3-(5-phenylindoline-1-carbonyl)pyrrolidine-1-carbonitrile], the half-maximal inhibitory concentration (IC50) fell in the range of 100 to 1000 nM.

Take `N#CN1CCC(F)(C(=O)N2CCc3ccc(-c4ccccc4)cc32)C1` (stereo not shown) [Example 15, 3-Fluoro-3-(6-phenylindoline-1-carbonyl)pyrrolidine-1-carbonitrile]: the half-inhibitory concentration (IC50) is 100 to 1000 nM.

`N#CN1CCC(F)(C(=O)N2CCc3ccc(-c4ccccc4)nc32)C1` (stereo not shown) [Example 16, 3-Fluoro-3-(6-phenyl-2,3-dihydro-1-H-pyrrolo[2,3-b]pyridine-1-carbonyl)pyrrolidine-1-carbonitrile]: the half-inhibitory concentration (IC50) lay within 100 to 1000 nM.

As to `N#CN1CC[C@@H](C(=O)N2CCc3cc(-c4ccccc4)ccc32)C1` [Example 17, (R)-3-(5-Phenylindoline-1-carbonyl)pyrrolidine-1-carbonitrile], the IC50 fell in the range of 1000 to 10000 nM.

For `N#CN1CC[C@H](C(=O)N2CCc3cc(-c4ccccc4)ccc32)C1` [Example 18, (S)-3-(5-Phenylindoline-1-carbonyl)pyrrolidine-1-carbonitrile], the half-inhibitory concentration (IC50) is 100 to 1000 nM.

On to `C[C@@H]1CN(C#N)C[C@H]1C(=O)N1CCc2cc(-c3ccccc3)ccc21` [Example 19, (3S,4S)-3-Methyl-4-(5-phenylindoline-1-carbonyl)pyrrolidine-1-carbonitrile], for which the IC50 lay within 100 to 1000 nM.

Take `C[C@H]1CN(C#N)C[C@@H]1C(=O)N1CCc2cc(-c3ccccc3)ccc21` [Example 20, (3R,4R)-3-Methyl-4-(5-phenylindoline-1-carbonyl)pyrrolidine-1-carbonitrile]: the half-maximal inhibitory concentration (IC50) was in the range of 1000 to 10000 nM.

As for `N#CN1CC[C@H](C(=O)N2CCc3cc(-c4ccccc4)cnc32)C1` [Example 21, (S)-3-(5-Phenyl-2,3-dihydro-1H-pyrrolo[2,3-b]pyridine-1-carbonyl)pyrrolidine-1-carbonitrile], the IC50 lay within 1000 to 10000 nM.

On to `N#CN1CCC(F)(C(=O)N2CCc3cc(-c4ccccc4)cnc32)C1` (stereo not shown) [Example 22, 3-Fluoro-3-(5-phenyl-2,3-dihydro-1H-pyrrolo[2,3-b]pyridine-1-carbonyl)pyrrolidine-1-carbonitrile], for which the IC50 fell in the range of 100 to 1000 nM.

For the molecule `N#CN1CC[C@H](C(=O)N2CCCc3cc(-c4ccccc4)ccc32)C1` [Example 23, (S)-3-(6-Phenyl-1,2,3,4-tetrahydroquinoline-1-carbonyl)pyrrolidine-1-carbonitrile], the IC50 lay within 100 to 1000 nM.

On to `N#CN1CC[C@@H](C(=O)N2CCOc3cc(-c4ccccc4)ccc32)C1` [Example 24, (R)-3-(7-Phenyl-3,4-dihydro-2H-benzo[b][1,4]oxazine-4-carbonyl)pyrrolidine-1-carbonitrile], for which the IC50 was in the range of 100 to 1000 nM.

Take `N#CN1CC[C@@H](C(=O)N2CCOc3ccc(-c4ccccc4)cc32)C1` [Example 25, (R)-3-(6-Phenyl-3,4-dihydro-2H-benzo[b][1,4]oxazine-4-carbonyl)pyrrolidine-1-carbonitrile]: the IC50 lay in the range of 100 to 1000 nM.

With `N#CN1CC[C@@H](C(=O)N2CCOc3c(-c4ccccc4)cccc32)C1` [Example 26, (R)-3-(8-Phenyl-3,4-dihydro-2H-benzo[b][1,4]oxazine-4-carbonyl)pyrrolidine-1-carbonitrile], the half-inhibitory concentration (IC50) lay in the range of 1000 to 10000 nM.

Consider `N#CN1CC[C@H](C(=O)N2CCc3c(-c4ccccc4)ccnc32)C1` [Example 27, (S)-3-(4-Phenyl-2,3-dihydro-1H-pyrrolo[2,3-b]pyridine-1-carbonyl)pyrrolidine-1-carbonitrile], for which the IC50 lay in the range of 100 to 1000 nM.

Regarding `N#CN1CC[C@H](C(=O)N2CCc3c(-c4cccc(Cl)c4)ccnc32)C1` [Example 28, (S)-3-(4-(3-Chlorophenyl)-2,3-dihydro-1H-pyrrolo[2,3-b]pyridine-1-carbonyl)pyrrolidine-1-carbonitrile], the IC50 fell in the range of 1000 to 10000 nM.

As to `Cn1cc(-c2cc3c(cc2C#N)N(C(=O)[C@H]2CCN(C#N)C2)CC3)cn1` [Example 29, (S)-1-(1-Cyanopyrrolidine-3-carbonyl)-5-(1-methyl-1H-pyrazol-4-yl)indoline-6-carbonitrile], the IC50 lay in the range of 1000 to 10000 nM.

Take `N#CN1CC[C@@H](C(=O)N2CCOc3cc(-n4cccn4)ccc32)C1` [Example 30, (R)-3-(7-(1H-Pyrazol-1-yl)-3,4-dihydro-2H-benzo[b][1,4]oxazine-4-carbonyl)-pyrrolidine-1-carbonitrile]: the IC50 fell in the range of 1000 to 10000 nM.

For the molecule `CN(C(=O)[C@@H]1CCN(C#N)C1)c1cc(-c2ccccc2)cnn1` [Example 32, (R)-1-Cyano-N-methyl-N-(5-phenylpyridazin-3-yl)pyrrolidine-3-carboxamide], the half-maximal inhibitory concentration (IC50) was in the range of 1000 to 10000 nM.

On to `CN(C(=O)C1(F)CCN(C#N)C1)c1cc(-c2ccccc2)on1` (stereo not shown) [Example 33, 1-Cyano-3-fluoro-N-methyl-N-(5-phenylisoxazol-3-yl)pyrrolidine-3-carboxamide], for which the IC50 was 100 to 1000 nM.

With `N#CN1CCC(F)(C(=O)N2CCc3cc(-c4ccnn4Cc4ccccc4)ccc32)C1` (stereo not shown) [Example 35, 3-(5-(1-Benzyl-1H-pyrazol-5-yl)indoline-1-carbonyl)-3-fluoropyrrolidine-1-carbonitrile], the IC50 is 1000 to 10000 nM.

The values above are taken from patent US10640498B2, “Compounds” (MISSION THERAPEUTICS LIMITED, priority 2016, dated 2020).
